What is called IC50 is the midpoint of a concentration-inhibition curve.

Experimental findings from patent US7667040B2, “Azacyclic ethynyl derivatives” (Neurosearch A/S, priority 2002, dated 2010) are described below.

Experiment [1] addresses T1, serotonin transporter (Rattus norvegicus, UniProt P31652).
T1 construct: Cerebral cortices from male Wistar rats (150-200 g) are homogenized; from tissue; host or cells: rat cerebral cortex synaptosomes (P2 pellet)
Put plainly: In vitro inhibition of 3H-5-hydroxytryptamine uptake in cortical synaptosomes. It counts as biochemical. Particulars: 1 nM 3H-5-HT, 30 minutes at 37° C. How it is done:
In vitro Inhibition of ^3H-5-Hydroxytryptamine Uptake in Cortical Synaptosomes
Serotonin transporters/uptake sites on nerve terminals presumably function to terminate neuronal signaling by removing serotonin from the synaptic cleft. The activity of the serotonin transporter integral protein can be measured in vitro by synaptosomal uptake of ^3H-5-hydroxytryptamine (5-HT, serotonin).
Preparations are performed at 0-4° C. Cerebral cortices from male Wistar rats (150-200 g) are homogenized for 5-10 seconds in 100 volumes of ice-cold 0.32 M sucrose containing 1 mM pargyline, using a motor driven teflon pestle in a glass homogenizing vessel. Monoamine oxidase activity is inhibited in the presence of pargyline.
The homogenate is subjected to centrifugation at 1000×g for 10 minutes. The resulting supernatant is then centrifuged at 27,000×g for 50 minutes and the supernatant is discarded. The pellet (P2) is re-suspended in oxygenated (equilibrated with an atmosphere of 96% O2: 4% CO2 for at least 30 minutes) Krebs-Ringer incubation buffer (1000 ml per g of original tissue) at pH 7.2 containing 122 mM NaCl, 0.16 mM EDTA, 4.8 mM KCl, 12.7 mM Na2HPO4, 3.0 mM NaH2PO4, 1.2 mM MgSO4, 1 mM CaCl2, 10 mM glucose and 1 mM ascorbic acid.
Aliquots of 4.0 ml tissue suspension are added to 100 μl, of test solution and 100 μl of ^3H-5-HT (1 nM, final concentration), mixed and incubated for 30 minutes at 37° C. Non-specific uptake is determined using Citalopram (1 μM, final concentration, available from Lundbeck, Denmark).
After incubation, the samples are poured directly onto Whatman GF/C glass fibre filters under suction. The filters are washed three times with 5 ml of ice-cold 0.9% (w/v) NaCl solution.
The amount of radioactivity on the filters is determined by conventional liquid scintillation counting. Specific uptake is calculated as the difference between total uptake and non-specific uptake.
25-75% inhibition of specific binding must be obtained, before calculation of an IC50.
The test value is given as IC50 (the concentration (μM) of the test substance which inhibits the specific binding of ^3H-5-HT by 50%).

The target of experiment [2] is T2, α7-subtype of nicotinic receptors (Rattus norvegicus, UniProt Q05941).
T2 construct: Cerebral cortices from male Wistar rats (150-250 g) are homogenised; from tissue; host or cells: rat cerebral cortex membrane homogenate
Put plainly: In vitro inhibition of 3H-α-bungarotoxine binding in rat brain.

The mark [3] stands for this setting: rat cerebral cortex homogenate, 2 nM 3H-α-bungarotoxine, 2 hours at 37° C., read-out: Inhibition of 3H-α-Bungarotoxine Binding IC50.

Where a name gives a salt, the structure may show the parent alone. Read-outs that look alike come from different tables or passages of the source.

T1 sequence (P31652 whole entry): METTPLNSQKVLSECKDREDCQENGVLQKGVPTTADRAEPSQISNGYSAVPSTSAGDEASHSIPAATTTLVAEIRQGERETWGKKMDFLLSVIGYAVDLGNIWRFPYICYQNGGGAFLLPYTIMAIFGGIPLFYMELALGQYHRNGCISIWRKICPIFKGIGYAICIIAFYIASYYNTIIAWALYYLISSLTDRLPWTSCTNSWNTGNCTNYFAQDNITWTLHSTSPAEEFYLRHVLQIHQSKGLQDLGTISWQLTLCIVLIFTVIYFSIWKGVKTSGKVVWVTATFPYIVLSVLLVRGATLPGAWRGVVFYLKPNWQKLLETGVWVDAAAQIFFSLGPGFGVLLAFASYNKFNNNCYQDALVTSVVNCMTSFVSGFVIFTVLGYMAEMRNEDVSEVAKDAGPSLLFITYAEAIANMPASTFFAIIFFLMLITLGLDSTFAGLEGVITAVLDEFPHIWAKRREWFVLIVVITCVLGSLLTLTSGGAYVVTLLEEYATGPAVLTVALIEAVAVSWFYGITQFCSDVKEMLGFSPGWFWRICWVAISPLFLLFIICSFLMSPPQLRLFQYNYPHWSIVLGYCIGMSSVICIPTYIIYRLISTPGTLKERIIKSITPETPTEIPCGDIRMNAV
T2 sequence (Q05941 23-502): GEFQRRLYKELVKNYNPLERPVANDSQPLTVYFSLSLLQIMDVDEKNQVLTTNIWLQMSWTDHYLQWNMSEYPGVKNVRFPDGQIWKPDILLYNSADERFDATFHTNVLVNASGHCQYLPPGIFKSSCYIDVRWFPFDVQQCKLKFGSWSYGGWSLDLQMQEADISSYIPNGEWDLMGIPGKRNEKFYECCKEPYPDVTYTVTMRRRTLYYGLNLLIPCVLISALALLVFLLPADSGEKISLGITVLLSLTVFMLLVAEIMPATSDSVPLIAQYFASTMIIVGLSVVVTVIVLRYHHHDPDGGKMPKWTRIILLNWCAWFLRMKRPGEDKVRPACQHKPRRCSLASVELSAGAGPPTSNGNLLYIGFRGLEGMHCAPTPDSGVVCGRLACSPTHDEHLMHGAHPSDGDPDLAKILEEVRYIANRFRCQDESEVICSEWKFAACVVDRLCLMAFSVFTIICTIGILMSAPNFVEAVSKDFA

In turn, `C(#Cc1ccccc1)C1=CC2CCC(C1)N2` (racemic) [Compound C1, (±)-8-H-3-Phenyletynyl-8-azabicyclo[3.2.1]oct-2-ene fumaric acid salt] gave an IC50 in experiment [1] of 0.099 µM.
With `C(#Cc1ccccc1)C1=CN2CCC1CC2` [Compound A1, (±)-3-Phenyletynyl-quinuclidin-2-ene], the IC50 worked out at 0.18 µM in experiment [2] (setting [3]) and 0.42 µM in experiment [1].
In the same order, the values of `C[N+]12C=C(C#Cc3ccccc3)C(CC1)CC2` (racemic) [Compound B2, (±)-1-Methyl-3-phenyletynyl-quinuclidin-2-ene iodide salt] are 0.6 µM and 0.1 µM.
Turning to `CN1C2C=C(C#Cc3ccccc3)CC1CC2` (racemic) [Compound 1, (±)-8-Methyl-3-phenyletynyl-8-azabicyclo[3.2.1]oct-2-ene fumaric acid salt], the IC50 turned out to be 0.32 µM in experiment [2] and 0.11 µM in experiment [1].
As for `C[N+]1(C)C2C=C(C#Cc3ccccc3)CC1CC2` (racemic) [Compound B1, (±)-8,8-Dimethyl-3-phenyletynyl-8-azabicyclo[3.2.1]oct-2-ene iodide salt], in experiment [2] (setting [3]), the half-maximal inhibitory concentration (IC50) worked out at 0.002 µM.
